Here are results for seven compounds from patent US7824850B2, “Methods of protein destabilization and uses thereof” (Aurora Biosciences Corporation, priority 2000, dated 2010).

Assay [1] concerns proteasome. The assay can be described thus: In vitro degradation of 2XUb-Bla in chase lysate with inhibitors. The note with it: 20 minutes at 37° C.
For assay [2], the system named is HRV14 2A protease. As to the kind of experiment: HRV 2A protease cell-based assay, Jurkat clone expressing 3XUb-HRV14-Bla. The note with it: compound 1 μM, 4 hours, cycloheximide 30 minutes. Details: species or system human rhinovirus 14. The protocol:
(§1) To assay HRV 2A protease activity, the selected Jurkat stable cell clones were treated for 16 hours with […] clavulanate to inactivate pre-existing cleaved and uncleaved HRV 2A-Bla fusion protein. Cells were then washed twice with PBS, resuspended at 100,000 cells/well in 100 μl RPMI+10% FBS in 96-well plates. The cells were incubated at 37° C. for 4 hours in the presence or absence of an inhibitor of the 2A protease. Cells were treated with 100 μg/ml cycloheximide for 30 minutes at 37° C., loaded with CCF2-AM for 2 hours at room temperature and read on the CytoFluor plate reader as described in Example 8. Inhibitor compounds, radicicol and geldanamycin, were used for the validation of the HRV protease cell-based assay. […] Compounds were tested at 1 μM for their ability to inhibit the HRV 2A protease cell-based assay using clones expressing HRV16 and HRV14 2A protease reporters.

Assay [3] concerns HRV16 2A protease. As to the kind of experiment: HRV 2A protease cell-based assay, Jurkat clone expressing 3XUb-HRV16-Bla. The arrangement: species or system human rhinovirus 16. The note with it: compound 1 μM, 4 hours, cycloheximide 30 minutes. The protocol: as §1
Assay [4] has as its target T1, β-lactamase (Escherichia coli, UniProt P62593).
T1 construct: wild-type (cleavable) ubiquitin (N, cleaved yes); expressed in transfected cells; host or cells: Jurkat
The assay can be described thus: Control: β-lactamase activity in Jurkat cells expressing wild-type β-lactamase. The assay is classed as cell-based. The note with it: data not shown.

For assay [5], the system named is proteasome. The assay can be described thus: TNT in vitro synthesis of multiUb-Bla fusions with or without proteasome inhibitor. To be noted: 50 μM; β-lactamase fusions containing 2, 3 or 4 copies of ubiquitinG76V.
From the text: S-Labeled multimerized destabilization domain-β-lactamase fusion protein molecules were produced using a coupled in vitro transcription/translation system based on a rabbit reticulocyte lysate (TNT T7 Quick; Promega).
Assay [6] deals with group II caspases. As to the kind of experiment: Caspase activity assay in Jurkat clones expressing 2XUb-DEVD-Bla or 2XUb-DEVA-Bla (CCF2-AM, 460/530 ratio). The assay is classed as cell-based, human.
For assay [7] the following is noted: overnight treatment of Jurkat cells; cited from earlier work.
In assay [8] the target is T2, proteasome (Homo sapiens, UniProt P28074).
T2 sequence (P28074 60-263): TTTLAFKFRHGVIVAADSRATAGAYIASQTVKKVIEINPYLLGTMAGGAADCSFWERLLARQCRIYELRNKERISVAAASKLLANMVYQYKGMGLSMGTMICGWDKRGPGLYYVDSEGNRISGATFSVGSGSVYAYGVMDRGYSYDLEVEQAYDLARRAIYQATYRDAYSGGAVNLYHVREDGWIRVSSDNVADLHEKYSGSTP
T2 sequence (P28072 35-239 partner): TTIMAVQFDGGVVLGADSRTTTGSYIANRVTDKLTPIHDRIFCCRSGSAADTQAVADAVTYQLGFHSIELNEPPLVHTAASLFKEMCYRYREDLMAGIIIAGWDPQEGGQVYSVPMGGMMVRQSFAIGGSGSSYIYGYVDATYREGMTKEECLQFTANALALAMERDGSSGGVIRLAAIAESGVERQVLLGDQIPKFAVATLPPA
T2 sequence (Q99436 44-277 partner): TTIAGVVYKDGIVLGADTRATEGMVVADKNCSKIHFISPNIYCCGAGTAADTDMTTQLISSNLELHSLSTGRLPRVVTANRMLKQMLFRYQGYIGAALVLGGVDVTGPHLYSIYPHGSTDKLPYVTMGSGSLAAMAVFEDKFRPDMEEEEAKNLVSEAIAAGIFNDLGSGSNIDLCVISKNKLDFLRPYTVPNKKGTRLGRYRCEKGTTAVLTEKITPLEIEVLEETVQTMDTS
To be noted: read-out: IC50 inhibition of decay of β-lactamase activity; Jurkat cells expressing 2XUb-Bla, 30 minutes preincubation, cycloheximide 1 hour.
Method: The cells were loaded with CCF2-AM to measure β-lactamase activity as described above.
After 1 hour at 37° C., the cells were cooled to room temperature and then loaded with 1 μM CCF2-AM and β-lactamase activity quantified using a CytoFluor plate reader. The background-subtracted emission values at 460 nm and 530 nm were expressed as a 460/530 ratio and dose-response curves were plotted.

Where a SMILES comes first, the peptide text is derived from it. [ ]: non-standard residue; d: D form. The star is where a group is joined. Nle = CCCC[C@H](N)C(=O)O; Cbz = O=C(OCc1ccccc1)*; CH2F = FC*

T1 sequence (P62593 24-286 limits assumed): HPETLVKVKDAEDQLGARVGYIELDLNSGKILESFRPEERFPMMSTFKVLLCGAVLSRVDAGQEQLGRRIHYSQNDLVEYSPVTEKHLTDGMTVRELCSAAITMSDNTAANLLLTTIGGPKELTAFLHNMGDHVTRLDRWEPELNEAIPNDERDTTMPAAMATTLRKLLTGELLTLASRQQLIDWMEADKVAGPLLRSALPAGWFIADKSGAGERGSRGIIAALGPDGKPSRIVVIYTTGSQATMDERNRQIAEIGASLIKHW

On to `CC(=O)N[C@@H](CSC(=O)[C@]1([C@@H](O)C(C)C)NC(=O)[C@H](C)[C@@H]1O)C(=O)O` [lactacystin], for which the “effect on degradation of 2XUb-Bla in vitro” value in assay [1] (10 μM) was “stabilized the 2XUb-Bla fusion protein”.

Regarding `COC1=C2C[C@@H](C)C[C@H](OC)[C@H](O)[C@@H](C)/C=C(\C)[C@H](OC(N)=O)[C@@H](OC)/C=C\C=C(/C)C(=O)NC(=CC1=O)C2=O` [geldanamycin], the 460/530 nm ratio is on record as 0.153 in assay [2] and 0.239 in assay [3].

Consider `C[C@@H]1C[C@H]2O[C@@H]2/C=C\C=C\C(=O)Cc2c(Cl)c(O)cc(O)c2C(=O)O1` [radicicol], for which the 460/530 nm ratio in assay [2] came to 0.152; in assay [3] it was 0.229. In assay [4], the “inhibition of β-lactamase activity (control)” value is recorded as “did not inhibit β-lactamase activity”.

On to `CC(C)C[C@@H](C=O)NC(=O)[C@H](CC(C)C)NC(=O)[C@H](CC(C)C)NC(=O)OCc1ccccc1` [MG132] (Cbz-Leu-Leu-Leu-aldehyde), for which, in assay [5], the “effect on amount of fusion protein synthesized” value is “dramatic increase in the amount of fusion protein synthesized”.

On to `COC(=O)C[C@H](NC(=O)[C@H](C)NC(=O)[C@@H](NC(=O)OCc1ccccc1)C(C)C)C(=O)CF` [Z-VAD-fmk] (Cbz-Val-Ala-Asp(OMe)-CH2F), for which the “effect on stabilization of DEVD-Bla reporters” value in assay [6] (10 μM coincident with anti-Fas addition) is recorded as “blocked the stabilization of DEVD-Bla reporters”. Further, in assay [6] (Jurkat cells expressing 2XUb-DEVD-Bla, 50 ng/ml anti-Fas IgM, read-out: IC50 inhibition of anti-Fas induced caspase activity), the IC50 is 5 µM.

Turning to `O=C(O)[C@H]1/C(=C/CO)O[C@@H]2CC(=O)N21` [Clavulanate, clavulanate], the “effect on β-lactamase levels” value in assay [7] is recorded as “reduces β-lactamase levels to background”.

For `CCCC[C@@H](C=O)NC(=O)[C@H](CC(C)C)NC(=O)[C@H](CC(C)C)NC(C)=O` [Ac-LLN] (Ac-Leu-Leu-[Nle]-aldehyde), the IC50 in assay [8] was found to be 13 µM. For the same compound, in assay [1] (50 μM), the “effect on degradation of 2XUb-Bla in vitro” value was “stabilized the 2XUb-Bla fusion protein”.

The IC50 is the concentration that gives 50% inhibition.
